The values that follow come from patent US9409900B2, “Compound for increasing kinase active and application thereof” (FUJIAN HAIXI PHARMACEUTICALS, INC., priority 2010, dated 2016).

pEC50: −log10 of the molar value.

Sequence of glucokinase (P35557 whole entry, species assumed): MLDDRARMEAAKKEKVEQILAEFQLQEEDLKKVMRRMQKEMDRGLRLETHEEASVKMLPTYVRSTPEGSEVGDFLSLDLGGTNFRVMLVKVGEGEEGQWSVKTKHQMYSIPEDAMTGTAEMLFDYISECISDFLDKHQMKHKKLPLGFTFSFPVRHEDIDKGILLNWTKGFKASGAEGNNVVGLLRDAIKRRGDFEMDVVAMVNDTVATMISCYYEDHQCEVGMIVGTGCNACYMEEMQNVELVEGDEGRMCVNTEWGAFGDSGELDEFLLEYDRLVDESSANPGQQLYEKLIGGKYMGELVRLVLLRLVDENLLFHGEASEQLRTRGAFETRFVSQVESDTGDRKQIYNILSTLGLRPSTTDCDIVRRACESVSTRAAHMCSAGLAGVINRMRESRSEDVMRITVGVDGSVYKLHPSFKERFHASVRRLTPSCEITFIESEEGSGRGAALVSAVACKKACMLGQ

The target in this assay is glucokinase (Homo sapiens (Human), UniProt P35557). Description: Glucokinase Activation Assay. To be noted: 5 mM glucose, 100 nM glucokinase, G6PDH-coupled, absorbance at 340 nm, pH 7.1. The assay is classed as biochemical. As to the method:
The final assay volume was 200 uL and the final buffer conditions used in this assay were as follows: 25 mM HEPES, 5 mM glucose, 1 mM ATP, 2 mM MgCl2, 1 mM NAD, 1 mM DTT, 8.5 U/mL G6PDH, 100 nM glucokinase, and 25 mM KCl. The buffer pH was 7.1. The mixture A was first made containing KCl, MgCl2, DTT and Glucose in HEPES buffer. The mixture B was made containing NAD and ATP. The test compound in DMSO solution, the mixture A, the mixture B and G6PDH were first mixed in a 96-well plate. Glucokinase was then added to initiate the reaction, and the absorbance at 340 nm was monitored every 5 mins. The activity of glucokinase was represented by the initial generation rate of glucose-6-phosphate, which was calculated by drawing the slope values from the absorbance changing curve at 340 nm vs. the time points.
With `CS(=O)(=O)c1ccc(Oc2ccc(Nc3ccc(C(=O)O)cn3)cc2CN2CCCC2=O)cn1` [Example 6, 6-(4-(6-(methylsulfonyl)pyridin-3-yloxy)-3-((2-oxopyrrolidin-1-yl)methyl)phenylamino) nicotinic acid], the negative-log EC50 (pEC50) (usually the EC50 on a negative log10 scale, so that one unit is a factor of ten) is 5.70.
As for `Cc1cnc(Nc2ccc(Oc3ccc(S(C)(=O)=O)nc3)c(CN3CCCC3=O)c2)s1` [Example 13, 1-(2-(6-(methylsulfonyl)pyridin-3-yloxy)-5-(5-methylthiazol-2-ylamino)benzyl)pyrrolidin-2-one], the figure is 5.70; as for `CN(C)C(=O)c1ccc(Oc2ccc(Nc3ccccn3)cc2CN2CCCC2=O)cn1` [Example 65, N,N-dimethyl-5-(2-((2-oxopyrrolidin-1-yl)methyl)-4-(pyridin-2-ylamino)phenoxy)picolinamide], 5.30; as for `CN(C)C(=O)c1ccc(Oc2ccc(Nc3ccc(CCC(=O)O)cn3)cc2CN2CCCC2=O)cn1` [Example 78, 3-(6-(4-(6-(dimethylcarbamoyl)pyridin-3-yloxy)-3-((2-oxopyrrolidin-1-yl)methyl)phenylamino)pyridin-3-yl) propanoic acid], 5.82.
